Values quoted from earlier work as cited in patent US20240066097A1 (priority 2022, published 2024).
In brackets after ≈: the same amount, converted by molar mass.

B1: Urtica dioica Agglutinin (UDA) (protein, UniProt P11218 24-372, looked up)
Lectin/endochitinase 1: QRCGSQGGGGTCPALWCCSIWGWCGDSEPYCGRTCENKCWSGERSDHRCGAAVGNPPCGQDRCCSVHGWCGGGNDYCSGSKCQYRCSSSVRGPRVALSGNSTANSIGNVVVTEPLFDQMFSHRKDCPSQGFYSYHSFLVAAESFPAFGTIGDVATRKREVAAFLAHISQATSGERSDVENPHAWGLCHINTTTVTENDFCTSSDWPCAAGKKYSPRGPIQLTHNFNYGLAGQAIGEDLIQNPDLVEKDPIISFKTALWFWMSQHDNKPSCHDIVLNANSAANRIPNKGVIGNIISRAFGHDDFAVRSSSIGFYKRYCDMLGVSYGHDLKYWFDNTPSSEFQRIQMRVAA

Experiments:
SARS coronaviruses [1] = test system: SARS coronaviruses
[2] = in vivo
SARS coronaviruses [3] = test system: SARS coronaviruses; remark: listed apart in the source

Row | Molecule | IC50 (SARS coronaviruses [1]) | further results
1 | O=c1c(O)c(-c2cc(O)c(O)c(O)c2)oc2cc(O)cc(O)c12 [Myricetin] | 0.86 µg/mL (≈ 2.7 µM) | –
2 | COc1ccc([C@@H]2CC(=O)c3c(O)cc(O)cc3O2)cc1O [Hesperetin] | 2.5 µg/mL (≈ 8.27 µM) | –
3 | Oc1cc(O)c2c(c1)O[C@@]1(c3ccc(O)c(O)c3)Oc3cc(O)c4c(c3[C@@H]2[C@H]1O)O[C@H](c1ccc(O)c(O)c1)[C@H](O)[C@H]4c1c(O)cc(O)c2c1O[C@H](c1ccc(O)c(O)c1)[C@H](O)C2 [Cinnamtannin B1] | 28.4 µg/mL (≈ 32.8 µM) | –
4 | MBL | – | half life [2]: 72 to 170 h
5 | O=c1cc(-c2ccc(O)c(O)c2)oc2cc(O)cc(O)c12 [Luteolin] | 5.72 µg/mL (≈ 20 µM) | –
6 | O=c1c(O)c(-c2ccc(O)cc2)oc2cc(O)cc(O)c12 [Kaempferol] | 62.50 to 125.00 µg/mL | EC50 level of the flavonol (SARS coronaviruses [3]): 10 µg/mL
7 | O=c1c(O)c(-c2ccc(O)c(O)c2)oc2cc(O)cc(O)c12 [Quercetin] | 7.19 to 60 µg/mL | EC50 level of the flavonol (SARS coronaviruses [3]): 60 µg/mL
8 | O=C(O[C@@H]1Cc2c(O)cc(O)cc2O[C@@H]1c1cc(O)c(O)c(O)c1)c1cc(O)c(O)c(O)c1 [EGCG, epigallocatechin gallate] | 0.389 to 7.56 µg/mL | –
9 | [Ca+2] [calcium] | – | dietary calcium absorption: up to −50%
10 | B1 | – | EC50 (SARS-CoV-1): 1.3 µg/mL
